What was measured:
[1] = test system: Rat; test: concentration in adipose after dosing; conditions: 144 h; dosed: Tamoxifen citrate; 300 ug/mL; oral; Female; F344
[2] = test system: Rat; test: concentration in adipose after dosing; conditions: 144 h; dosed: Tamoxifen citrate; 100 ug/mL; oral; Female; F344
[3] = test system: Rat; test: concentration in adipose after dosing; conditions: 144 h; dosed: Tamoxifen; 300 ug/mL; oral; Female; F344
[4] = test system: Rat; test: concentration in liver after dosing; conditions: 72 h; dosed: Tamoxifen citrate; 100 ug/mL; oral; Female; F344
[5] = test system: Rat; test: concentration in adipose after dosing; conditions: 144 h; dosed: Tamoxifen; 300 ug/mL; oral; Female; F344; remark: listed apart in the source
[6] = test system: Rat; test: concentration in plasma after dosing; conditions: dosed: Tamoxifen, 300 ug/mL, oral, Female, F344
[7] = test system: Rat; test: concentration in liver after dosing; conditions: 144 h; dosed: Tamoxifen; 300 ug/mL; oral; Female; F344
[8] = test system: Rat; test: concentration in plasma after dosing; conditions: 300 ug/mL, oral, Female, F344
[9] = test system: Rat; test: concentration in liver after dosing; conditions: 144 h; dosed: Tamoxifen; 300 ug/mL; oral; Female; F344; remark: listed apart in the source
[10] = test system: Rat; test: concentration in adipose after dosing; conditions: 144 h; dosed: Tamoxifen citrate; 300 ug/mL; oral; Female; F344; remark: listed apart in the source
[11] = test system: Rat; test: concentration in plasma after dosing; conditions: dosed: Tamoxifen, 300 ug/mL, oral, Female, F344; remark: listed apart in the source
[12] = test system: Rat; test: concentration in liver after dosing; conditions: 144 h; dosed: Tamoxifen citrate; 100 ug/mL; oral; Female; F344
[13] = test system: Rat; test: concentration in liver after dosing; conditions: 72 h; dosed: Tamoxifen citrate; 300 ug/mL; oral; Female; F344
[14] = test system: Rat; test: concentration in liver after dosing; conditions: 144 h; dosed: Tamoxifen citrate; 300 ug/mL; oral; Female; F344
[15] = test system: Rat; test: concentration in liver after dosing; conditions: 144 h; dosed: Tamoxifen citrate; 300 ug/mL; oral; Female; F344; remark: listed apart in the source
[16] = test system: Rat; test: concentration in adipose after dosing; conditions: 144 h; dosed: Tamoxifen; 300 ug/mL; oral; Female; F344; remark: listed apart in the source
[17] = test system: Rat; test: concentration in liver after dosing; conditions: 144 h; dosed: Tamoxifen; 300 ug/mL; oral; Female; F344; remark: listed apart in the source
[18] = test system: Rat; test: concentration in liver after dosing; conditions: 72 h; dosed: Tamoxifen citrate; 300 ug/mL; oral; Female; F344; remark: listed apart in the source
[19] = test system: Rat; test: concentration in plasma after dosing; conditions: dosed: Tamoxifen citrate, 300 ug/mL, oral, Female, F344
[20] = test system: Rat; test: concentration in adipose after dosing; conditions: 144 h; dosed: Tamoxifen citrate; 300 ug/mL; oral; Female; F344; remark: listed apart in the source
[21] = test system: Rat; test: concentration in adipose after dosing; conditions: 72 h; dosed: Tamoxifen citrate; 100 ug/mL; oral; Female; F344
[22] = test system: Rat; test: concentration in adipose after dosing; conditions: 144 h; dosed: Tamoxifen; 300 ug/mL; oral; Female; F344; remark: listed apart in the source
[23] = test system: Rat; test: concentration in adipose after dosing; conditions: oral, Female, F344
[24] = test system: Rat; test: concentration in liver after dosing; conditions: 144 h; dosed: Tamoxifen citrate; 100 ug/mL; oral; Female; F344; remark: listed apart in the source
[25] = test system: Rat; test: concentration in adipose after dosing; conditions: 144 h; dosed: Tamoxifen citrate; 300 ug/mL; oral; Female; F344; remark: listed apart in the source
[26] = test system: Rat; test: concentration in liver after dosing; conditions: 144 h; dosed: Tamoxifen; 300 ug/mL; oral; Female; F344; remark: listed apart in the source
[27] = test system: Rat; test: concentration in adipose after dosing; conditions: 72 h; dosed: Tamoxifen; 300 ug/mL; oral; Female; F344
[28] = test system: Rat; test: concentration in adipose after dosing; conditions: 72 h; dosed: Tamoxifen citrate; 300 ug/mL; oral; Female; F344
[29] = test system: Rat; test: concentration in liver after dosing; conditions: oral, Female, F344
[30] = test system: Rat; test: concentration in liver after dosing; conditions: 144 h; dosed: Tamoxifen citrate; 300 ug/mL; oral; Female; F344; remark: listed apart in the source
[31] = test system: Rat; test: concentration in liver after dosing; conditions: 144 h; dosed: Tamoxifen citrate; 300 ug/mL; oral; Female; F344; remark: listed apart in the source
[32] = test system: Rat; test: concentration in adipose after dosing; conditions: 144 h; dosed: Tamoxifen; 300 ug/mL; oral; Female; F344; remark: listed apart in the source
[33] = test system: Rat; test: concentration in liver after dosing; conditions: 144 h; dosed: Tamoxifen; 300 ug/mL; oral; Female; F344; remark: listed apart in the source
[34] = test system: Rat; test: concentration in plasma after dosing; conditions: dosed: Tamoxifen citrate, 300 ug/mL, oral, Female, F344; remark: listed apart in the source
[35] = test system: Rat; test: concentration in adipose after dosing; conditions: 72 h; dosed: Tamoxifen citrate; 100 ug/mL; oral; Female; F344; remark: listed apart in the source
[36] = test system: Rat; test: concentration in adipose after dosing; conditions: 72 h; dosed: Tamoxifen citrate; 300 ug/mL; oral; Female; F344; remark: listed apart in the source
[37] = test system: Rat; test: concentration in adipose after dosing; conditions: 72 h; dosed: Tamoxifen; 300 ug/mL; oral; Female; F344; remark: listed apart in the source
[38] = test system: Rat; test: concentration in plasma after dosing; conditions: dosed: Tamoxifen citrate, 300 ug/mL, oral, Female, F344; remark: listed apart in the source
[39] = test system: Rat; test: concentration in liver after dosing; conditions: 72 h; dosed: Tamoxifen citrate; 100 ug/mL; oral; Female; F344; remark: listed apart in the source
[40] = test system: Rat; test: concentration in adipose after dosing; conditions: 144 h; dosed: Tamoxifen citrate; 300 ug/mL; oral; Female; F344; remark: listed apart in the source
[41] = test system: Rat; test: concentration in liver after dosing; conditions: 72 h; dosed: Tamoxifen; 300 ug/mL; oral; Female; F344
[42] = test system: Rat; test: concentration in liver after dosing; conditions: 144 h; dosed: Tamoxifen citrate; 300 ug/mL; oral; Female; F344; remark: listed apart in the source
[43] = test system: Rat; test: concentration in liver after dosing; conditions: 72 h; dosed: Tamoxifen; 300 ug/mL; oral; Female; F344; remark: listed apart in the source
[44] = test system: Rat; test: concentration in plasma after dosing; conditions: dosed: Tamoxifen, 300 ug/mL, oral, Female, F344; remark: listed apart in the source

CC/C(=C(\c1ccccc1)c1ccc(OCCN(C)C)cc1)c1ccccc1 [Tamoxifen]
Conditions | concentration in adipose [ng/mL] | concentration in liver [ng/g]
[1] | 40.1 | –
[2] | 10.4 | –
[3] | 40.1 | –
[4] | – | 5.85
[5] | 44.5 | –
[7] | – | 37.2
[9] | – | 25.3
[10] | 55.7 | –
[12] | – | 16.3
[13] | – | 21.1
[14] | – | 22.8
[15] | – | 58.4
[16] | 55.7 | –
[17] | – | 58.4
[18] | – | 30.5
[20] | 30.4 | –
[21] | 14.8 | –
[22] | 30.4 | –
[24] | – | 13.9
[25] | 151 | –
[26] | – | 22.8
[27] | 27.4 | –
[28] | 27.4 | –
[30] | – | 25.3
[31] | – | 37.2
[32] | 151 | –
[33] | – | 239
[35] | 5.58 | –
[36] | 31.2 | –
[37] | 31.2 | –
[39] | – | 13
[40] | 44.5 | –
[41] | – | 30.5
[42] | – | 239
[43] | – | 21.1

concentration in plasma [ng/mL]
Conditions | [6] | [11] | [19] | [34] | [38] | [44]
0.25 h | 15.4 | 21.9 | 11.9 | 21.9 | 15.4 | 11.9
0.5 h | 12.2 | 10.2 | 8.96 | 10.2 | 12.2 | 8.96
1 h | 9.33 | – | 7.35 | – | 9.33 | 7.35
2 h | 8.41 | 6.23 | 5.81 | 6.23 | 8.41 | 5.81
4 h | 4.44 | 4.51 | – | 4.51 | 4.44 | –
12 h | – | 2.66 | – | 2.66 | – | –

concentration in plasma [ng/mL], [8]
Conditions | 0 h | 0.25 h | 0.5 h | 1 h | 2 h | 4 h | 8 h | 16 h
dosed: Tamoxifen | 2.13 | 3.18 | 2.95 | 2.9 | 4.38 | 4.12 | 4.6 | 2.42
dosed: Tamoxifen citrate | 2.13 | 3.18 | 2.95 | 2.9 | 4.38 | 4.12 | 4.6 | 2.42

Conditions | concentration in adipose, [23] [ng/mL] | concentration in liver, [29] [ng/g]
72 h, dosed: Tamoxifen citrate, 100 ug/mL | 7.52 | 7.61
72 h, dosed: Tamoxifen citrate, 300 ug/mL | 33.6 | 39.5
72 h, dosed: Tamoxifen, 300 ug/mL | 33.6 | 39.5
144 h, dosed: Tamoxifen citrate, 100 ug/mL | 9.5 | 13.4
144 h, dosed: Tamoxifen citrate, 300 ug/mL | 31.5 | 48.3
144 h, dosed: Tamoxifen, 300 ug/mL | 31.5 | 48.3

Reference: EPA's CvTdb concentration-time database
